This is an account of results in patent US20160297763A1, “Heteroaryl hydroxamic acid derivatives and their use in the treatment, amelioration or prevention of a viral disease” (priority 2011, published 2016).

Molecules are shown by their SMILES.

In one data set the test system is influenza A virus A/Aichi/2/68 (H3N2). In words: Cytopathic effect (CPE) assay H3N2.
Settings: not given
It counts as cell-based, influenza A virus (H3N2) on MDCK cells. Here is the method: A possible measure of the […] antiviral activity of the compounds having the formula I or II is the CPE assay disclosed herein. […] In this connection, the reduction in the virus-mediated cytopathic effect (CPE) upon treatment with the compounds was calculated as follows: The cell viability of infected-treated and uninfected-treated cells was determined using an ATP-based cell viability assay (Promega). The response in relative luminescent units (RLU) of infected-untreated samples was subtracted from the response (RLU) of the infected-treated samples and then normalized to the viability of the corresponding uninfected sample resulting in % CPE reduction.
The influenza A virus (IAV) was obtained from American Tissue Culture Collection (A/Aichi/2/68 (H3N2); VR-547). Virus stocks were prepared by propagation of virus on Mardin-Darby canine kidney (MDCK; ATCC CCL-34) cells and infectious titres of virus stocks were determined by the 50% tissue culture infective dose (TCID50) analysis as described in Reed, L. J., and H. Muench. 1938, Am. J. Hyg. 27:493-497.
MDCK cells were seeded in 96-well plates at 2×10^4 cells/well using DMEM/Ham's F-12 (1:1) medium containing 10% foetal bovine serum (FBS), 2 mM L-glutamine and 1 antibiotics (all from PAA). Until infection the cells were incubated for 5 hrs at 37° C., 5.0 CO2 to form a ˜80% confluent monolayer on the bottom of the well. Each test compound was dissolved in DMSO and generally tested at 25 μM and 250 μM. In those cases where the compounds were not soluble at that concentration they were tested at the highest soluble concentration. The compounds were diluted in infection medium (DMEM/Ham's F-12 (1:1) containing 5 μg/ml trypsin, and 1% antibiotics) for a final plate well DMSO concentration of 1%. The virus stock was diluted in infection medium (DMEM/Ham's F-12 (1:1) containing 5 μg/ml Trypsin, 1% DMSO, and 1% antibiotics) to a theoretical multiplicity of infection (MOI) of 0.05.
After removal of the culture medium and one washing step with PBS, virus and compound were added together to the cells. In the wells used for cytotoxicity determination (i.e. in the absence of viral infection), no virus suspension was added. Instead, infection medium was added. Each treatment was conducted in two replicates. After incubation at 37° C., 5% CO2 for 48 hrs, each well was observed microscopically for apparent cytotoxicity, precipitate formation, or other notable abnormalities. Then, cell viability was determined using CellTiter-Glo luminescent cell viability assay (Promega). The supernatant was removed carefully and 65 μl of the reconstituted reagent were added to each well and incubated with gentle shaking for 15 min at room temperature. Then, 60 μl of the solution was transferred to an opaque plate and luminescence (RLU) was measured using Synergy HT plate reader (Biotek).
Relative cell viability values of uninfected-treated versus uninfected-untreated cells were used to evaluate cytotoxicity of the compounds. Substances with a relative viability below 80% at the tested concentration were regarded as cytotoxic and retested at lower concentrations.
Reduction in the virus-mediated cytopathic effect (CPE) upon treatment with the compounds was calculated as follows: The response (RLU) of infected-untreated samples was subtracted from the response (RLU) of the infected-treated samples and then normalized to the viability of the corresponding uninfected sample resulting in % CPE reduction.
In general terms: Cytopathic effects are the visible damage that an infection or toxin causes in cultured cells.
As to `Cc1c(Cc2ccc(Cl)cc2)sc2nc(N)[nH]c(=O)c12` [SAV-7609], the “CPE H3N2 (insoluble): solubility in the assay” value was “reduction (%) insoluble”.

Staying with this data set, now noted: Influenza A virus, H3N2, activity conc 1 (μM per method); read-out: CPE H3N2 reduction (%).
Take `CCONC(=O)c1cc(NCCCc2cccc(Cl)c2)ccn1` [drawing 168]: the inhibition at 1 µM is -0.3%. As to `O=C(c1cc(C2=CCCCC2)ccn1)N(O)Cc1ccccc1` [drawing 257], the inhibition at 1 µM was found to be 3.4%. Turning to `O=C(c1cc(-c2ccccc2)ccn1)N(O)Cc1ccc(F)cc1` [drawing 223], the inhibition at 1 µM is -3.2%. Regarding `CCONC(=O)c1cc(NCc2cccc(OCc3ccccc3)c2)ccn1`, the inhibition at 1 µM amounted to 1.2%.

Staying with this data set, now noted: Influenza A virus, H3N2, activity conc 2 (μM per method); read-out: CPE H3N2 reduction (%).
With `CC(C)c1cccc(-c2ccc(C(=O)NO)nc2)c1` [drawing 205], the inhibition at 2 µM is -2.1%. For the compound `COC1=CC=C(c2ccnc(C(=O)N(O)Cc3ccccc3)c2)CC1`, the inhibition at 2 µM is -2.5%. On the same count and under the same terms, the result for `CC(C)c1cccc(-c2ccc(C(=O)N(O)CCc3ccccc3)nc2)c1` [drawing 207] reads 2.1%.

Staying with this data set, now noted: Influenza A virus, H3N2, activity conc 5 (μM per method); read-out: CPE H3N2 reduction (%).
In the case of `CN(Cc1ccccc1)c1ccnc(C(=O)N(O)Cc2ccccc2)c1`, the inhibition at 5 µM amounted to 3.8%. Regarding `O=C(c1ccc(N2CCCCC2)cn1)N(O)Cc1ccccc1` [drawing 208], the inhibition at 5 µM was -3.4%. On to `CNC(=O)c1cccc(-c2ccnc(C(=O)N(O)Cc3ccccc3)c2)c1`, for which the inhibition at 5 µM is -7.5%.

In the case of `O=C(c1cc(C2CCCCC2)ccn1)N(O)Cc1ccccc1` [drawing 258], the inhibition at 5 µM is -0.5%. Turning to `Cc1c(-c2ccccc2)sc2nc(NCCN)[nH]c(=O)c12` [SAV-7588], the inhibition at 5 µM was 2.2%.

`NC(=O)c1ccc(-c2ccnc(C(=O)N(O)Cc3ccccc3)c2)cc1` [drawing 232]: the inhibition at 5 µM is -2.5%.

With `O=C(c1cc(N2CCCCC2)ccn1)N(O)Cc1ccccc1` [drawing 183], the inhibition at 5 µM amounted to 1.1%. The same measure, in the same setting: the value for `CC(C)(C)OC(=O)N1CC=C(c2ccnc(C(=O)N(O)Cc3ccccc3)c2)CC1` [drawing 229] was 1.2%. For `CN(C)S(=O)(=O)c1cccc(-c2ccnc(C(=O)N(O)Cc3ccccc3)c2)c1` [drawing 233], the inhibition at 5 µM was -1.8%. On to `O=C(NOCc1ccccc1)c1cc(N2CCCCC2)ccn1` [drawing 187], for which the inhibition at 5 µM is 1%. Still for that read-out and setting: the value for `O=C(NO)c1cc(N2CCCCC2)ccn1` was -4.1%; that for `O=C(c1cc(-c2cccc(CO)c2)ccn1)N(O)Cc1ccccc1` [drawing 240] was 7.7%; that for `CN(c1ccnc(C(=O)NO)c1)S(=O)(=O)Cc1ccccc1` was -1.7%.

`Cc1c(-c2ccccc2)sc2nc(NC3CCCCC3)[nH]c(=O)c12` [SAV-7640]: the inhibition at 5 µM is -3.2%. Still for that read-out and setting: the result for `O=C(NO)c1cc(-c2ccc(Cl)cc2)ccn1` reads 26.6%.

Regarding `O=C(NOCc1ccccc1)c1cc2ccccc2cn1` [drawing 182], the inhibition at 5 µM was -1.5%. In the case of `O=C(c1ccc(N2CCCC2)cn1)N(Cc1ccccc1)OCc1ccccc1` [drawing 178], the inhibition at 5 µM was -2.7%.

Staying with this data set, now noted: Influenza A virus, H3N2, activity conc 10 (μM per method); read-out: CPE H3N2 reduction (%).
Take `Cc1cccc(-c2ccc(C(=O)N(O)Cc3ccccc3)nc2)c1` [drawing 181]: the inhibition at 10 µM worked out at 15.5%.

The data set is the same for the next values; noted with them: Influenza A virus, H3N2, activity conc 20 (μM per method); read-out: CPE H3N2 reduction (%).
Take `O=C(c1cc(N2CCC(F)(F)C2)ccn1)N(O)Cc1ccccc1`: the inhibition at 20 µM came to 4.6%. The same measure, in the same setting: the value for `CCONC(=O)c1ccc(-c2cccc(CN(C)CCCc3ccccc3)c2)cn1` was 1.6%. The same measure, in the same setting: the result for `O=C(NOCc1ccccc1)c1ccc(N2CCCC2)cn1` [drawing 177] reads -8.7%.

Staying with this data set, now noted: Influenza A virus, H3N2, activity conc 50 (μM per method); read-out: CPE H3N2 reduction (%).
Regarding `COc1ccc2nc(C(=O)NOCc3ccccc3)ccc2c1`, the inhibition at 50 µM was -1.9%. The same measure, in the same setting: the value for `O=C(NO)c1ccccn1` was 3.15%. The same measure, in the same setting: the result for `CN(O)C(=O)c1cc(N2CCCCC2)ccn1` reads -0.9%; that for `CC(C)(C)OC(=O)N1CCN(c2ccnc(C(=O)N(O)Cc3ccccc3)c2)CC1`, 34%. For `CCON(C)C(=O)c1cccc(C)n1`, the inhibition at 50 µM is -1.9%. Still for that read-out and setting: the value for `CC1(C)C=C(c2ccnc(C(=O)N(O)Cc3ccccc3)c2)CC(C)(C)N1` was 2.8%; that for `CN1CCN(c2ccnc(C(=O)N(O)Cc3ccccc3)c2)CC1` was 2.4%; that for `CN(C)C(=O)c1cccc(-c2ccnc(C(=O)N(O)Cc3ccccc3)c2)c1` was 5.3%.

On to `CON(C)C(=O)c1cccc(C(=O)N(C)OC)n1`, for which the inhibition at 50 µM is -0.3%.

For the compound `CCONC(=O)c1ccc2c(=O)n(C)c(=O)n(C)c2n1`, the inhibition at 50 µM was -0.4%. Take `O=C(c1cc(C2CCCNC2)ccn1)N(O)Cc1ccccc1` (centres unmarked): the inhibition at 50 µM was determined as 6.1%. Turning to `O=C(c1cc(N2CCC(N3CCCC3)CC2)ccn1)N(O)Cc1ccccc1` [drawing 226], the inhibition at 50 µM is 10.7%. Regarding `Cc1cccc(C(=O)NOCc2ccccc2)n1` [drawing 170], the inhibition at 50 µM is -2.7%. Regarding `CCONC(=O)c1ccc2ccccc2n1`, the inhibition at 50 µM was -2.2%. The same measure, in the same setting: the result for `O=C(NO)c1cc(NS(=O)(=O)Cc2ccccc2)ccn1` reads 5.1%; that for `O=C(NO)c1cc(NS(=O)(=O)Cc2ccccc2Cl)ccn1`, 1.5%; that for `O=C(c1cc(NS(=O)(=O)Cc2ccccc2)ccn1)N(O)Cc1ccccc1` [drawing 209], 6.2%. Take `CCONC(=O)c1cccc(C)n1`: the inhibition at 50 µM was -2.1%. As to `O=C(c1cc(C2=CCNCC2)ccn1)N(O)Cc1ccccc1`, the inhibition at 50 µM was found to be 0.4%. The same measure, in the same setting: the value for `CN(OCc1ccccc1)C(=O)c1ccc(-c2ccccc2)cn1` was -2.6%; that for `CON(C)C(=O)c1cccc(C)n1` was -0.9%. Still for that read-out and setting: the result for `O=C(NOC(=O)c1cc(N2CCCCC2)ccn1)c1cc(N2CCCCC2)ccn1` [drawing 160] reads 29%. Same read-out and setting: the result for `O=C(c1cc(N2CCC3(CC2)OCCO3)ccn1)N(O)Cc1ccccc1` [drawing 235] reads 9.5%; that for `CCONC(=O)c1cc(N)ccn1`, 10.5%. As to `O=C(c1cc(NS(=O)(=O)Cc2cccc(Cl)c2)ccn1)N(O)Cc1ccccc1`, the inhibition at 50 µM was 9.5%.

Turning to `CON(C)C(=O)c1ccc2ccccc2n1`, the inhibition at 50 µM was -1.2%. Same read-out and setting: the result for `O=C(c1cc(N2CCCC(F)(F)C2)ccn1)N(O)Cc1ccccc1` [drawing 224] reads 8.9%; that for `O=C(c1cc(NS(=O)(=O)Cc2cccc(F)c2)ccn1)N(O)Cc1ccccc1`, 9.6%; that for `O=C(NO)c1cc(NS(=O)(=O)Cc2cccc(C(F)(F)F)c2)ccn1`, -5.6%. Regarding `O=C(c1cc(C2=CC3CCC(C2)N3)ccn1)N(O)Cc1ccccc1` (centres unmarked) [drawing 283], the inhibition at 50 µM is 5.49%.

With `N/C(=N\O)c1ccc(C(=O)NO)nc1`, the inhibition at 50 µM is -4.8%. Same read-out and setting: the result for `O=C(c1cc(NS(=O)(=O)Cc2ccc(F)cc2)ccn1)N(O)Cc1ccccc1` reads -1.1%. On to `CN1CCN(c2ccnc(C(=O)N(C)O)c2)CC1`, for which the inhibition at 50 µM amounted to 2.6%.

Still in this data set, the particulars now being: Influenza A virus, H3N2, read-out: CPE H3N2 reduction (%), activity conc 5 (μM per method).
Turning to `Cc1c(-c2ccc(Cl)c(C(F)(F)F)c2)sc2nc(N)[nH]c(=O)c12` [SAV-7623], the inhibition at 5 µM was 1.9%.

`Cc1c(-c2ccccc2)sc2nc(Nc3ccccc3)[nH]c(=O)c12` [SAV-7638]: the inhibition at 5 µM came out at 8.7%.

The data set is the same for the next values; noted with them: Influenza A virus, H3N2; read-out: CPE H3N2 IC50.
For the compound `O=C(NOC(=O)c1cc(N2CCCCC2)ccn1)c1cc(N2CCCCC2)ccn1` [drawing 160], the IC50 was found to be 37 µM.

The same data set, now with this note: activity conc 5 (μM per method).
As to `O=C(c1cc(N2CCCCC2)ccn1)N(O)Cc1ccccc1` [drawing 197], the “CPE H3N2 reduction (%)” value is 1.1%.

Staying with this data set, now noted: activity conc 50 (μM per method).
As for `Cl.O=C(NO)c1cc(NS(=O)(=O)Cc2cccc(Cl)c2)ccn1` [drawing 267], the “CPE H3N2 reduction (%)” value was 5.9%. On the same count and under the same terms, the result for `Cl.O=C(NO)c1cc(NS(=O)(=O)Cc2cccc(Cl)c2)ccn1` [drawing 288] reads 2.29%.

For orientation: IC50 means the concentration that gives 50% inhibition.
